# Source: paper PMC3958483, “Fine Specificity and Molecular Competition in SLAM Family Receptor Signalling” (PLoS ONE, 2014)
# Non-standard residues stand in square brackets, D forms with d. Residues, ends and D or L forms follow the SMILES beside them. *: point of attachment. Biotin = O=C1N[C@H]2[C@H](CS[C@H]2CCCCC(=O)*)N1; pY = N[C@@H](Cc1ccc(OP(=O)(O)O)cc1)C(=O)O
# Tests used:
# [1] = target: T1, SHP-2 (SH2-SH2) (Homo sapiens, UniProt Q06124); assay: SPR binding of SHP-2 tandem (N+C) SH2 domains to immobilised phosphopeptides; details: 37°C, SHP2 N+C SH2, equilibrium binding fit shown in Figure 6D
# T1 construct: OPPF catalogue number 3911; aa 2–219, EC = 23,045 M^−1 cm^−1; His-tag; host or cells: E. coli BL21(DE3)pLysS
# T1 sequence (Q06124 2-219): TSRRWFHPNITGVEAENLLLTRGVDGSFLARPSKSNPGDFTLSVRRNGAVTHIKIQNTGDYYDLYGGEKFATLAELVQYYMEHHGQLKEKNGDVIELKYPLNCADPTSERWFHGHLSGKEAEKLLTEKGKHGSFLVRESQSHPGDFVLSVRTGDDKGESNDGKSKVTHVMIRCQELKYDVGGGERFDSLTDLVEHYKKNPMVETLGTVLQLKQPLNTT
# Excerpt: Biotinylated EAT-2 was produced by expression of full length human EAT-2 with a C-terminal BirA tag ([…]) in the E coli expression vector pTrcHisA. Constructs encoding the 6xHis-tagged tandem SH2 domains plus the SH3 domains of PLCγ1 (Swiss-Prot: P19174, aa 536–863) and PLCγ2 (Swiss-Prot: P16885, aa 519–838) were generated in pTrcHisA (5′ joining sequence with BglII site underlined: gag atc tcc translates as EIS). The molecular weight (MW) and theoretical extinction coefficients (EC) of recombinant PLCγ1 and PLCγ2 SH2-SH2-SH3 domains were PLCγ1; MW = 42531, EC = 63,830 M^−1 cm^−1 and PLCγ2; MW = 42415, EC = 67,270 M^−1 cm^−1.
# Measurements of protein-protein affinity were performed on BIAcore 3000 and T200 systems using CM5 or biotin capture chips (GE Healthcare Ltd, UK). Streptavidin was coupled to CM5 sensor chips using standard NHS/EDC chemical linkage, followed by immobilization of biotinylated peptides. […] Equilibrium binding coefficients and dissociation and association rates were calculated using BIAevaluation and/or GraphPad Prism 5.4 software.
# Binding of inhibitory tyrosine phosphatases through their SH2 domains to ITIMs is enhanced by phosphorylation of two tyrosine motifs which are appropriately spaced. […] We measured binding of SHP-2 tandem SH2 domains (recombinant SHP-1 SH2 domains were unstable in solution) to tandem ITSMs in CD244 (Figure 6B and Table 4). […]
# [2] = Pull-down with EAT-2 Y127 phosphopeptide from NK92 lysates, LC-MS/MS; assay type: binding, human; details: NK92 cell lysates
# Procedure: (§1) For pull-down of associated proteins, streptavidin Sepharose (GE Healthcare) was pre-coated with saturating amounts of peptide or EAT-2. NK92 cells (4×10^8) were treated with 500 μM pervanadate for 15 minutes, then lysed in PBS, 1% Triton X-100, 1 mM sodium orthovanadate in the presence of mammalian protease inhibitor solution (Sigma). Lysates were pre-cleared by centrifugation, followed by incubation with streptavidin Sepharose. Peptide or EAT-2-coated streptavidin beads were incubated with NK92 lysates for 2 hours at 4°C with rotation. Beads were washed once with 15 ml ice cold PBS/1% (v/v) Triton X-100. Bound protein was eluted using 100 mM glycine-HCl pH 2.5.
# Protein samples were prepared for mass spectrometry as described previously. Briefly, eluted proteins were spun onto the membranes of Vivacon 500 filters (10,000 MWCO – Sartorius). Membranes were washed once with PBS then proteins were denatured with 8 M urea, reduced with 10 mM DTT in 25 mM ammonium bicarbonate buffer, followed by alkylation with 50 mM iodoacetamide. Proteins were then digested overnight with trypsin. Tryptic peptides were then eluted from the membrane and analyzed on an Ultimate 3000 HPLC-coupled Orbitrap XL mass spectrometer. […] Raw data files were converted to mzXML format using ReADW (v. 4.2.1) and submitted to the Central Proteomics Facilities Pipeline for database comparison and peptide identification. […]
# [3] = tested on: NK92 cells; assay: IFNγ production by NK92 cells; assay type: cell-based, human; details: TJW, unpublished
# [4] = Pull-down with phosphorylated CD244 ITSM1 from NK cell lysates, LC-MS/MS; assay type: binding; details: human NK cell lysates; compared with control phosphopeptide SHIP-1 Y865
# Procedure: as §1
# Protein samples were prepared for mass spectrometry as described previously. Briefly, eluted proteins were spun onto the membranes of Vivacon 500 filters (10,000 MWCO – Sartorius). Membranes were washed once with PBS then proteins were denatured with 8 M urea, reduced with 10 mM DTT in 25 mM ammonium bicarbonate buffer, followed by alkylation with 50 mM iodoacetamide. Proteins were then digested overnight with trypsin. Tryptic peptides were then eluted from the membrane and analyzed on an Ultimate 3000 HPLC-coupled Orbitrap XL mass spectrometer. Proteins were identified by liquid chromatography-coupled tandem mass-spectrometry (LC-MS/MS). Raw data files were converted to mzXML format using ReADW (v. 4.2.1) and submitted to the Central Proteomics Facilities Pipeline for database comparison and peptide identification. Searching against the International Protein Index (IPI) human protein sequence database for protein identification, protein and peptide hits were statistically validated by applying a 1% false discovery rate (FDR) by searching against a concatenated target/decoy database. Datasets were searched with variable peptide modifications for phosphotyrosine, phosphoserine, phosphothreonine, oxidation of methionine and deamination.
# Protein identification data were exported into ProteinCenter (v3.8.3013 – Thermo Fisher) for filtering and annotation. Results were filtered to remove any proteins with less than 3 unique peptides, less than 10 percent sequence coverage, or median protein probability scores less than 0.5. To establish sample specificity, any protein with at least 10-fold greater sequence coverage in one sample compared with the other was considered to be specific for that sample.
# Similarly, differences in specificity of inhibitory SH2 domain containing proteins for ITSMs are relevant to understanding mechanisms of inhibition by ITSMs. We focused on CD244 ITSMs to establish general paradigms.
compound,measurement,setting,value
CC[C@H](C)[C@H](NC(=O)[C@H](CCSC)NC(=O)[C@H](CO)NC(=O)[C@H](Cc1ccc(OP(=O)(O)O)cc1)NC(=O)[C@@H](NC(=O)[C@@H](NC(=O)[C@H](CO)NC(=O)CNC(=O)CNC(=O)CNC(=O)[C@@H]1CCCN1C(=O)[C@H](Cc1ccccc1)NC(=O)[C@@H](NC(=O)[C@H](CCC(N)=O)NC(=O)[C@H](CCC(=O)O)NC(=O)[C@H](CCC(N)=O)NC(=O)[C@H](CCC(=O)O)NC(=O)[C@H](Cc1c[nH]cn1)NC(=O)[C@H](CC(N)=O)NC(=O)[C@H](CCCNC(=N)N)NC(=O)[C@H](CCCNC(=N)N)NC(=O)[C@@H](NC(=O)[C@H](CCCCN)NC(=O)[C@H](CC(C)C)NC(=O)[C@H](CC(=O)O)NC(=O)[C@H](CCCCN)NC(=O)[C@@H](NC(=O)[C@H](CC(=O)O)NC(=O)[C@H](CCC(=O)O)NC(=O)[C@H](Cc1ccc(OP(=O)(O)O)cc1)NC(=O)[C@@H](NC(=O)[C@@H](NC(=O)[C@H](CC(C)C)NC(=O)[C@H](Cc1ccccc1)NC(=O)[C@H](CCC(=O)O)NC(=O)CCCC[C@@H]1SC[C@@H]2NC(=O)N[C@@H]21)[C@@H](C)O)[C@@H](C)CC)C(C)C)[C@@H](C)O)[C@@H](C)O)[C@@H](C)O)[C@@H](C)CC)C(=O)N[C@@H](CCC(N)=O)C(=O)N[C@@H](CO)C(=O)O [CD244 ITSM1+ITSM2] (Biotin-EFLTI[pY]EDVKDLKTRRNHEQEQTFPGGGSTI[pY]SMIQS-OH),Kd,[1],2.4 µM
Fyn: Src-family kinase,pull-down by EAT-2 Y127,[2],Notably absent from this list
PLCγ1: phospholipase C gamma-1,effect on IFNγ production by NK92 cells,[3],inhibitory
same,pull-down by CD244 ITSM1,[4],pulled down by the ITSM peptide
